According to patent US9365522B2, “Pyrazole amide derivative” (AMGEN INC., priority 2015, dated 2016):

Target: T1, human RORγ-LBD (Homo sapiens, UniProt P51449)
T1 construct: made in house; host or cells: E. coli (BL-21)
T1 sequence (P51449 262-518): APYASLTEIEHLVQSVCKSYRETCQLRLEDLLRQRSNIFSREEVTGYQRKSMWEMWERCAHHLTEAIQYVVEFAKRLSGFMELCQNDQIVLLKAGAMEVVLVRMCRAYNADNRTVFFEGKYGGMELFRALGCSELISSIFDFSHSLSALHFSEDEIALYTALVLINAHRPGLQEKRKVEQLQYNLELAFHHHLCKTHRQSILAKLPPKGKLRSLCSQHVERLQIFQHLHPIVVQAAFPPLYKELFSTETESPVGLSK
Test: ROR gamma coactivator peptide recruitment Alphascreen assay (RORγ-LBD binding to GRIP1 coactivator peptide)
Assay type: biochemical
Conditions: 5 nM human RORγ-LBD, 30 nM 7-β-hydroxycholesterol, 50 nM biotinylated GRIP1 coactivator peptide, overnight incubation at room temperature; read-out: result (pIC50, RORγ coactivator peptide recruitment Alphascreen assay) (converted)
Text: Alphascreen™ is a bead-based amplified homogenous luminescent proximity assay that can be used for measuring the effect of compounds on protein-protein interactions. When biological interactions bring donor and acceptor beads into close proximity, reactive oxygen, generated upon laser excitation of the donor beads, initiates a luminescence/fluorescence cascade in the acceptor beads that leads to a highly amplified signal that can be measured as light in the 520-620 nm range. When the acceptor and donor beads are not in proximity, the reactive oxygen decays and only a very low background signal is generated.
An in vitro assay to assess inhibition of RORγ binding to the coactivator GRIP1 was established using Alphascreen™ technology. The interaction between nuclear receptors (NR) and coactivator proteins is a key step in signal transduction from the receptor to the transcriptional machinery and can be measured in vitro using only the ligand binding domain of the nuclear receptor and a peptide containing a coactivator protein LXXLL nuclear receptor binding motif
For the RORγ construct used in the coactivator recruitment assay, nucleotides corresponding to the ligand binding domain (LBD) of wild type human RORγ (amino acids 262-518 of Genbank Accession No. NM_005060.3) were cloned into the pET24 expression vector (Novagen), downstream of in-frame N-terminal 6×His and Flag tag sequences. Recombinant 6×His:Flag-tagged human RORγ-LBD protein was expressed in E. coli (BL-21) and purified by affinity chromatography on a nickel Sepharose column, followed by anion exchange chromatography.
A 4× assay mixture of 6×His:Flag-tagged human RORγ-LBD with the agonist ligand 7-β-hydroxycholesterol was prepared in assay buffer (50 mM HEPES pH 7.4, BSA 0.05%, 150 mM NaCl, 5 mM MgCl2, 1 mM DTT, 0.01% Tween-20). For control wells a 4× mixture of 6×His:Flag-tagged human ROR gamma LBD alone was also prepared.
A 4× stock of biotinylated coactivator peptide containing the LXXLL motif from GRIP1 (Biotin-[…]) was prepared in assay buffer.
A 4×detection mixture of nickel chelate Alphascreen™ acceptor beads (PerkinElmer) and streptavidin Alphascreen™ donor beads (PerkinElmer) was prepared in assay buffer.
Compounds to be tested were arranged in a pre-dose 384-well mother plate serially diluted 1 in 2 over 22 columns, in 100% DMSO, at 40× the final test concentration, from a high concentration of 4 mM. DMSO with no compound was placed in control columns. The compounds were robotically dispensed directly into assay plates containing assay buffer to a 4× final test concentration.
Following compound addition, the 6×His:Flag-tagged human RORγ-LBD plus 7-β-hydroxycholesterol assay mixture, biotinylated coactivator peptide and detection mixture were added. Final assay conditions were 5 nM 6×His:Flag-tagged human RORγ-LBD, 30 nM 7-β-hydroxycholesterol, 50 nM biotinylated coactivator peptide, 2.5 ug/ml nickel acceptor beads and 10 ug/ml streptavidin donor beads. The final concentration of DMSO in the assay was 2.5%.
After overnight incubation at room temperature plates were read on and Envision™ plate reader (PerkinElmer).
Data was plotted and pIC50 values were calculated using the Genedata Screener™ data analysis suite (Genedata).

Row | IC50 | SMILES
1 | 0.049 µM | O=C(CN(CC1(F)CCCC1)C(=O)c1cnn(C2CCC(C(=O)O)CC2)c1C(F)(F)F)c1c(Cl)cccc1Cl (stereo in doubt) [Example 603, cis-4-(4-((2-(2,6-dichlorophenyl)-2-oxoethyl)((1-fluorocyclopentyl)methyl)carbamoyl)-5-(trifluoromethyl)-1H-pyrazol-1-yl)cyclohexanecarboxylic acid]
2 | 0.0363 µM | CC1(C)CC[C@@H](CN(CC(=O)c2c(Cl)cncc2Cl)C(=O)c2cnn([C@H]3CC[C@](C)(C(=O)O)CC3)c2C(F)(F)F)O1 [Example 673, trans-4-(4-((2-(3,5-dichloro-4-pyridinyl)-2-oxoethyl)(((2S)-5,5-dimethyltetrahydro-2-furanyl)methyl)carbamoyl)-5-(trifluoromethyl)-1H-pyrazol-1-yl)-1-methylcyclohexanecarboxylic acid]
3 | 0.0024 µM | CC1(C)[C@@H]2C[C@H](N(CC(=O)c3c(Cl)cccc3Cl)C(=O)c3cnn([C@H]4C[C@@H](CC(=O)O)C4)c3C(F)(F)F)C[C@@H]21 [Example 846, (cis-3-(4-((2-(2,6-dichlorophenyl)-2-oxoethyl)((1R,3r,5S)-6,6-dimethylbicyclo[3.1.0]hex-3-yl)carbamoyl)-5-(trifluoromethyl)-1H-pyrazol-1-yl)cyclobutyl)acetic acid]
4 | 0.0049 µM | CC(C)(C)CN(CC(=O)c1c(Cl)cccc1Cl)C(=O)c1cnn([C@H]2CC[C@H](C(=O)O)CC2)c1C(F)(F)F [Example 545, trans-4-(4-((2-(2,6-dichlorophenyl)-2-oxoethyl)(2,2-dimethylpropyl)carbamoyl)-5-(trifluoromethyl)-1H-pyrazol-1-yl)cyclohexanecarboxylic acid]
5 | 0.0955 µM | O=C(O)C1CCC(n2ncc(C(=O)N(CCc3c(Cl)cncc3Cl)CC3(F)CCCC3)c2C(F)(F)F)CC1 (stereo in doubt) [Example 609, cis-4-(4-((2-(3,5-dichloro-4-pyridinyl)ethyl)((1-fluorocyclopentyl)methyl)carbamoyl)-5-(trifluoromethyl)-1H-pyrazol-1-yl)cyclohexanecarboxylic acid]
6 | 0.0537 µM | CC(C)CCN(CC(=O)c1c(Cl)cccc1Cl)C(=O)c1cnn([C@H]2CC[C@H](C(=O)O)[C@H](C)C2)c1C(F)(F)F [Example 804, (1S,2R,4S)-4-(4-((2-(2,6-dichlorophenyl)-2-oxoethyl)(3-methylbutyl)carbamoyl)-5-(trifluoromethyl)-1H-pyrazol-1-yl)-2-methylcyclohexanecarboxylic acid]
7 | 0.01 µM | C[C@]1(C(=O)O)CC[C@H](n2ncc(C(=O)N(CC(=O)c3c(Cl)cc(F)cc3Cl)CC3CC3)c2C(F)(F)F)CC1 [Example 695, trans-4-(4-((cyclopropylmethyl)(2-(2,6-dichloro-4-fluorophenyl)-2-oxoethyl)carbamoyl)-5-(trifluoromethyl)-1H-pyrazol-1-yl)-1-methylcyclohexanecarboxylic acid]
8 | 0.00676 µM | C[C@]1(C(=O)O)CC[C@H](n2ncc(C(=O)N(CC(=O)c3c(Cl)cncc3Cl)CC3CCCC3)c2C(F)(F)F)CC1 [Example 592, trans-4-(4-((cyclopentylmethyl)(2-(3,5-dichloro-4-pyridinyl)-2-oxoethyl)carbamoyl)-5-(trifluoromethyl)-1H-pyrazol-1-yl)-1-methylcyclohexanecarboxylic acid]
9 | 0.00339 µM | C[C@]1(C(=O)O)CC[C@H](n2ncc(C(=O)N(CC(=O)c3c(Cl)cncc3Cl)[C@H]3CCC34CCC4)c2C(F)(F)F)CC1 [Example 748, trans-4-(4-((2-(3,5-dichloro-4-pyridinyl)-2-oxoethyl)((1S)-spiro[3.3]hept-1-yl)carbamoyl)-5-(trifluoromethyl)-1H-pyrazol-1-yl)-1-methylcyclohexanecarboxylic acid]
10 | 0.00132 µM | Cc1cc(Cl)c(C(=O)CN(CC2CCC(C)(C)CC2)C(=O)c2cnn([C@H]3CC[C@H](C(=O)O)CC3)c2C(F)(F)F)c(Cl)c1 [Example 535, trans-4-(4-((2-(2,6-dichloro-4-methylphenyl)-2-oxoethyl)((4,4-dimethylcyclohexyl)methyl)carbamoyl)-5-(trifluoromethyl)-1H-pyrazol-1-yl)cyclohexanecarboxylic acid]
11 | 0.00295 µM | C[C@@H]1CC(n2ncc(C(=O)N(CC(=O)c3c(Cl)cccc3Cl)CC(C)(C)C)c2C(F)(F)F)CCC1C(=O)O (stereo in doubt) [Example 794, (1S,2R,4S)-4-(4-((2-(2,6-dichlorophenyl)-2-oxoethyl)(2,2-dimethylpropyl)carbamoyl)-5-(trifluoromethyl)-1H-pyrazol-1-yl)-2-methylcyclohexanecarboxylic acid]
12 | 0.0138 µM | CC(C)(C)CN(CC(=O)c1c(Cl)cncc1Cl)C(=O)c1cnn([C@@H]2CC[C@@](C)(C(=O)O)C[C@@H]2F)c1C(F)(F)F [Example 869, (1R,3S,4R)-4-(4-((2-(3,5-dichloro-4-pyridinyl)-2-oxoethyl)(2,2-dimethylpropyl)carbamoyl)-5-(trifluoromethyl)-1H-pyrazol-1-yl)-3-fluoro-1-methylcyclohexanecarboxylic acid]
13 | 0.117 µM | CC1(C)CC[C@@H]1N(CC(=O)c1c(Cl)cncc1Cl)C(=O)c1cnn([C@H]2CC[C@](C)(C(=O)O)CC2)c1C(F)(F)F [Example 617, trans-4-(4-((2-(3,5-dichloro-4-pyridinyl)-2-oxoethyl)((1S)-2,2-dimethylcyclobutyl)carbamoyl)-5-(trifluoromethyl)-1H-pyrazol-1-yl)-1-methylcyclohexanecarboxylic acid]
14 | 0.355 µM | O=C(c1cnn([C@H]2CC[C@H](C(=O)O)CC2)c1C(F)(F)F)N(CCc1ccc2cc[nH]c2c1)Cc1ccc(Cl)cc1 [Example 503, trans-4-(4-((4-chlorobenzyl)(2-(1H-indol-6-yl)ethyl)carbamoyl)-5-(trifluoromethyl)-1H-pyrazol-1-yl)cyclohexanecarboxylic acid]
15 | 0.0479 µM | CC1(C)CC[C@@H](CN(CCc2c(Cl)cncc2Cl)C(=O)c2cnn([C@H]3CC[C@](C)(C(=O)O)CC3)c2C(F)(F)F)O1 [Example 680, trans-4-(4-((2-(3,5-dichloro-4-pyridinyl)ethyl)(((2S)-5,5-dimethyltetrahydro-2-furanyl)methyl)carbamoyl)-5-(trifluoromethyl)-1H-pyrazol-1-yl)-1-methylcyclohexanecarboxylic acid]
16 | 0.00537 µM | Cc1cc(Cl)c(C(=O)CN(Cc2cc(F)cc(F)c2)C(=O)c2cnn([C@H]3CC[C@@](C)(C(=O)O)CC3)c2C(F)(F)F)c(Cl)n1 [Example 762, trans-4-(4-((2-(2,4-dichloro-6-methyl-3-pyridinyl)-2-oxoethyl)(3,5-difluorobenzyl)carbamoyl)-5-(trifluoromethyl)-1H-pyrazol-1-yl)-1-methylcyclohexanecarboxylic acid]
17 | 0.0182 µM | Cc1cc(Cl)c(C(=O)CN(CCOC(C)(C)C)C(=O)c2cnn([C@H]3CC[C@](C)(C(=O)O)CC3)c2C(F)(F)F)c(Cl)n1 [Example 779, trans-4-(4-((2-(2,4-dichloro-6-methyl-3-pyridinyl)-2-oxoethyl)(2-((2-methyl-2-propanyl)oxy)ethyl)carbamoyl)-5-(trifluoromethyl)-1H-pyrazol-1-yl)-1-methylcyclohexanecarboxylic acid]
18 | 0.355 µM | C[C@]1(C(=O)O)CC[C@H](n2ncc(C(=O)N(CC(=O)c3c(Cl)cccc3Cl)[C@@H]3CCOC4(CCC4)C3)c2C(F)(F)F)CC1 [Example 654, trans-4-(4-((2-(2,6-dichlorophenyl)-2-oxoethyl)((8R)-5-oxaspiro[3.5]non-8-yl)carbamoyl)-5-(trifluoromethyl)-1H-pyrazol-1-yl)-1-methylcyclohexanecarboxylic acid]
